Assay results taken from patent US10159254B2, “Weed control methods” (Syngenta Participations AG, priority 2013, dated 2018).
“And” between values parts separate entries of the source, which are not always exact repeats. Equal entries are not always repeated.

Legend:
SYHT0H2 soybeans = assay: Greenhouse: Sequestrene 138Fe rate series, percent injury from HPPD-inhibitors at 7 DAT; format: in vivo, soybean; details: mesotrione 420, bicyclopyrone 200, tembotrione 368, topramezone 72 g/ha
Description: Effect of Sequestrene® 138Fe on Percent Injury from Various HPPD-inhibitors on SYHT0H2 Soybeans. Injury Assessed at Seven Days after Treatment (7 DAT)
SYHT0H2 soybeans are grown in 4×4-inch pots filled with a greenhouse potting mix. When the plants reach the V2-V3 growth stage, they are treated with an HPPD inhibitor applied alone or in a tank mixture with Sequestrene 138Fe at various rates ranging from 140 g product/ha (equivalent to 8.4 g iron/ha) to 2240 g product/ha (equivalent to 134 g iron/ha).

[1] = tested on: HPPD-tolerant soybean event SYHT04R; assay: Glasshouse: post-emergence HPPD herbicide damage with or without Sequestrene 138Fe, 7 DAA; format: in vivo; details: isoxaflutole, tembotrione
Description: (§1) Safening of Various HPPD-inhibiting Herbicides in HPPD-tolerant Soybean Events SYHT04R and SYHT0H2
(§2) An experiment is performed to determine whether the addition of chelating iron to the spray formulation can mitigate foliar bleaching injury from the HPPD herbicides mesotrione, bicyclopyrone, tembotrione, isoxaflutole, topramezone and pyrasulfatole when applied post-emergence to the HPPD-tolerant soybean events SYHT04R and SYHT0H2.
(§3) Soybean plants are grown in a glasshouse (24° C. day, 18° C. night; 65% relative humidity; 16 hour photoperiod). Two replicates are utilised in respect of SYHT0H2 (growth stage V1-V3) and three replicates are utilised in respect of SYHT04R (growth stage V1 to V3). Spray applications are applied post-emergence at […]. Herbicide damage was assessed 7 DAA (Days After Application).

[2] = tested on: HPPD-tolerant soybean event SYHT0H2; assay: as above; format: in vivo; details: isoxaflutole, tembotrione
Description: as §1, §2, §3

[3] = tested on: tobacco line over-expressing HPPD from Pseudomonas florescens; assay: Transgenic tobacco herbicide damage, mesotrione with or without Sequestrene 138; format: in vivo, Nicotiana tabacum cv Samsun (tobacco)
Description: (§4) Effect of Iron Chelates in Mitigating Foliar Bleaching Injury from HPPD Inhibiting Herbicides Across Various Transgenic HPPD Tolerant Tobacco Events Over-expressing HPPD Genes from Different Origins
(§5) This experiment is carried out to determine whether iron chelates can mitigate the bleaching injury from HPPD inhibiting herbicides across various transgenic HPPD tolerant tobacco events over-expressing HPPD genes from different origins. These experiments are conducted using three distinct HPPD-overexpressing Nicotiana tabacum cv Samsun (tobacco) lines, one over-expressing wheat HPPD, one overexpressing an Avena HPPD and one over-expressing a HPPD from a bacterial source, Pseudomonas florescens. For each transgenic line, five identical clonal plants were sprayed with each herbicide treatment. Two untransformed clonal tobacco plants are also sprayed ([…]) with each herbicide treatment. Assessments are carried out 3, 7 and 14 days after herbicide application.
(§6) All scores represent average % herbicide damage. […] An equivalent safening effect is not observed when the same chemical treatments are applied to wild type plants.

[4] = tested on: tobacco line over-expressing wheat HPPD; assay: as above; format: in vivo, Nicotiana tabacum cv Samsun (tobacco)
Description: as §4, §5, §6

[5] = tested on: untransformed clonal tobacco plants (WT); assay: Wild type tobacco herbicide damage, mesotrione with or without Sequestrene 138; format: in vivo, Nicotiana tabacum cv Samsun (tobacco)
Description: as §4, §5, §6

[6] = Sequestrene 138Fe 1000 g/ha, g ai/ha: mesotrione 200, bicyclopyrone, pyrasulfatole 100, topramazone 50
[7] = Sequestrene 138Fe 1000 g/ha, g ai/ha: mesotrione 800, bicyclopyrone, pyrasulfatole 400, topramazone 200
[8] = no Sequestrene 138Fe, g ai/ha: mesotrione 200, bicyclopyrone, pyrasulfatole 100, topramazone 50
[9] = no Sequestrene 138Fe, g ai/ha: mesotrione 800, bicyclopyrone, pyrasulfatole 400, topramazone 200
[10] = Trt 2: mesotrione 100 gai/ha alone, 3DAA
[11] = Trt 2: mesotrione 100 gai/ha alone, 7DAA
[12] = Trt 2: mesotrione 100 gai/ha alone, 14DAA
[13] = Trt 4: mesotrione 50 gai/ha + Sequestrene 138 1000 g/ha, 7DAA
[14] = Trt 4: mesotrione 50 gai/ha + Sequestrene 138 1000 g/ha, 14DAA
[15] = Trt 5: mesotrione 100 gai/ha + Sequestrene 138 1000 g/ha, 3DAA
[16] = Trt 5: mesotrione 100 gai/ha + Sequestrene 138 1000 g/ha, 7DAA
[17] = Trt 6: mesotrione 150 gai/ha + Sequestrene 138 1000 g/ha, 3DAA
[18] = Trt 6: mesotrione 150 gai/ha + Sequestrene 138 1000 g/ha, 14DAA
[19] = Trt 7: mesotrione 200 gai/ha alone, 3DAA
[20] = Trt 7: mesotrione 200 gai/ha alone, 7DAA
[21] = Trt 7: mesotrione 200 gai/ha alone, 14DAA
[22] = Trt 8: mesotrione 300 gai/ha alone, 3DAA
[23] = Trt 9: mesotrione 400 gai/ha alone, 3DAA
[24] = Trt 9: mesotrione 400 gai/ha alone, 7DAA
[25] = Trt 10: mesotrione 200 gai/ha + Sequestrene 138 1000 g/ha, 3DAA
[26] = Trt 10: mesotrione 200 gai/ha + Sequestrene 138 1000 g/ha, 7DAA
[27] = Trt 11: mesotrione 300 gai/ha + Sequestrene 138 1000 g/ha, 3DAA
[28] = Trt 11: mesotrione 300 gai/ha + Sequestrene 138 1000 g/ha, 7DAA
[29] = Trt 12: mesotrione 400 gai/ha + Sequestrene 138 1000 g/ha, 3DAA
[30] = Trt 12: mesotrione 400 gai/ha + Sequestrene 138 1000 g/ha, 7DAA
[31] = Trt 12: mesotrione 400 gai/ha + Sequestrene 138 1000 g/ha, 14DAA

For `CS(=O)(=O)c1ccc(C(=O)C2C(=O)CCCC2=O)c([N+](=O)[O-])c1` [Mesotrione, mesotrione], the “% Injury” value (SYHT0H2 soybeans; Sequestrene 138Fe 0 g/ha) was 15%, the “% Injury” value (SYHT0H2 soybeans; Sequestrene 138Fe 140 g/ha tank mix) was 13% and the “% Injury” value (SYHT0H2 soybeans; Sequestrene 138Fe 280 g/ha tank mix) was 2%. The “% Injury” value (SYHT0H2 soybeans; Sequestrene 138Fe 560 g/ha tank mix) was 1%, the “% Injury” value (SYHT0H2 soybeans; Sequestrene 138Fe 1120 g/ha tank mix) was 0% and the “% Injury” value (SYHT0H2 soybeans; Sequestrene 138Fe 2240 g/ha tank mix) was 0%. For the same compound, the “Herbicide damage SYHT04R” value [1, 6] was 2, the “Herbicide damage SYHT04R” value [1, 7] was 17 and the “Herbicide damage SYHT04R” value [1, 8] was 8. For the same compound, the “Herbicide damage SYHT04R” value [1, 9] was 32, the “Herbicide damage SYHT0H2” value [2, 6] was 3 and the “Herbicide damage SYHT0H2” value [2, 7] was 18. The “Herbicide damage SYHT0H2” value [2, 8] was 13, the “Herbicide damage SYHT0H2” value [2, 9] was 23 and the “% herbicide damage” value [3, 10] was 35% and 25% and 20%. For the same compound, the “% herbicide damage” value [3, 11] was 55% and 30% and 35%, the “% herbicide damage” value [3, 12] was 40% and 25% and 20% and 30% and the “% herbicide damage” value [3, 13] was 0%. The “% herbicide damage” value [3, 14] was 0%, the “% herbicide damage” value [3, 15] was 10% and 5% and the “% herbicide damage” value [3, 16] was 0%. The “% herbicide damage” value [3, 17] was 5% and 15% and 10%, the “% herbicide damage” value [3, 18] was 5% and 0% and the “% herbicide damage” value [4, 19] was 10% and 5%. The “% herbicide damage” value [4, 20] was 10% and 0%, the “% herbicide damage” value [4, 21] was 10% and 0% and the “% herbicide damage” value [4, 22] was 15% and 10%. The “% herbicide damage” value [4, 23] was 20% and 15%, the “% herbicide damage” value [4, 24] was 20% and 25% and the “% herbicide damage” value [4, 25] was 0% and 5%. The “% herbicide damage” value [4, 26] was 0%, the “% herbicide damage” value [4, 27] was 0% and 5% and 10% and the “% herbicide damage” value [4, 28] was 10% and 5% and 0%. For the same compound, the “% herbicide damage” value [4, 29] was 10% and 0%, the “% herbicide damage” value [4, 30] was 5% and 0% and the “% herbicide damage” value [4, 31] was 10% and 5%. The “% herbicide damage” value ([5]; Trt 1: mesotrione 50 gai/ha alone, 3DAA) was 60% and 65%, the “% herbicide damage” value ([5]; Trt 1: mesotrione 50 gai/ha alone, 7DAA) was 80% and the “% herbicide damage” value ([5]; Trt 1: mesotrione 50 gai/ha alone, 14DAA) was 85%. The “% herbicide damage” value [5, 10] was 70%, the “% herbicide damage” value [5, 11] was 80% and the “% herbicide damage” value [5, 12] was 85% and 90%. For the same compound, the “% herbicide damage” value ([5]; Trt 3: mesotrione 150 gai/ha alone, 3DAA) was 55% and 60%, the “% herbicide damage” value ([5]; Trt 3: mesotrione 150 gai/ha alone, 7DAA) was 80% and the “% herbicide damage” value ([5]; Trt 3: mesotrione 150 gai/ha alone, 14DAA) was 85%. For the same compound, the “% herbicide damage” value ([5]; Trt 4: mesotrione 50 gai/ha + Sequestrene 138 1000 g/ha, 3DAA) was 50%, the “% herbicide damage” value [5, 13] was 80% and the “% herbicide damage” value [5, 14] was 70% and 75%. The “% herbicide damage” value [5, 15] was 60%, the “% herbicide damage” value [5, 16] was 80% and the “% herbicide damage” value ([5]; Trt 5: mesotrione 100 gai/ha + Sequestrene 138 1000 g/ha, 14DAA) was 75% and 85%. The “% herbicide damage” value [5, 17] was 60%, the “% herbicide damage” value ([5]; Trt 6: mesotrione 150 gai/ha + Sequestrene 138 1000 g/ha, 7DAA) was 80% and the “% herbicide damage” value [5, 18] was 85%. For the same compound, the “% herbicide damage” value [5, 19] was 60%, the “% herbicide damage” value [5, 20] was 80% and the “% herbicide damage” value [5, 21] was 85%. For the same compound, the “% herbicide damage” value [5, 22] was 65%, the “% herbicide damage” value ([5]; Trt 8: mesotrione 300 gai/ha alone, 7DAA) was 80% and the “% herbicide damage” value ([5]; Trt 8: mesotrione 300 gai/ha alone, 14DAA) was 90% and 85%. The “% herbicide damage” value [5, 23] was 55% and 60%, the “% herbicide damage” value [5, 24] was 80% and the “% herbicide damage” value ([5]; Trt 9: mesotrione 400 gai/ha alone, 14DAA) was 85%. The “% herbicide damage” value [5, 25] was 55% and 60%, the “% herbicide damage” value [5, 26] was 80% and the “% herbicide damage” value ([5]; Trt 10: mesotrione 200 gai/ha + Sequestrene 138 1000 g/ha, 14DAA) was 85%. For the same compound, the “% herbicide damage” value [5, 27] was 50% and 60%, the “% herbicide damage” value [5, 28] was 80% and the “% herbicide damage” value ([5]; Trt 11: mesotrione 300 gai/ha + Sequestrene 138 1000 g/ha, 14DAA) was 90% and 85%. The “% herbicide damage” value [5, 29] was 55% and 60%, the “% herbicide damage” value [5, 30] was 80% and the “% herbicide damage” value [5, 31] was 90% and 85%. For the same compound, the “% herbicide damage” value ([5]; Trt 13: mesotrione 400 gai/ha alone, 3DAA) was 50% and 55%, the “% herbicide damage” value ([5]; Trt 13: mesotrione 400 gai/ha alone, 7DAA) was 80% and the “% herbicide damage” value ([5]; Trt 13: mesotrione 400 gai/ha alone, 14DAA) was 95% and 90%. For the same compound, the “% herbicide damage” value ([5]; Trt 14: mesotrione 500 gai/ha alone, 3DAA) was 55% and 60%, the “% herbicide damage” value ([5]; Trt 14: mesotrione 500 gai/ha alone, 7DAA) was 80% and the “% herbicide damage” value ([5]; Trt 14: mesotrione 500 gai/ha alone, 14DAA) was 85%. The “% herbicide damage” value ([5]; Trt 15: mesotrione 600 gai/ha alone, 3DAA) was 55%, the “% herbicide damage” value ([5]; Trt 15: mesotrione 600 gai/ha alone, 7DAA) was 80% and the “% herbicide damage” value ([5]; Trt 15: mesotrione 600 gai/ha alone, 14DAA) was 85%. The “% herbicide damage” value ([5]; Trt 16: mesotrione 400 gai/ha + Sequestrene 138 1000 g/ha, 3DAA) was 60% and 55%, the “% herbicide damage” value ([5]; Trt 16: mesotrione 400 gai/ha + Sequestrene 138 1000 g/ha, 7DAA) was 80% and the “% herbicide damage” value ([5]; Trt 16: mesotrione 400 gai/ha + Sequestrene 138 1000 g/ha, 14DAA) was 90% and 95%. The “% herbicide damage” value ([5]; Trt 17: mesotrione 500 gai/ha + Sequestrene 138 1000 g/ha, 3DAA) was 50% and 60%, the “% herbicide damage” value ([5]; Trt 17: mesotrione 500 gai/ha + Sequestrene 138 1000 g/ha, 7DAA) was 80% and the “% herbicide damage” value ([5]; Trt 17: mesotrione 500 gai/ha + Sequestrene 138 1000 g/ha, 14DAA) was 90%. For the same compound, the “% herbicide damage” value ([5]; Trt 18: mesotrione 600 gai/ha + Sequestrene 138 1000 g/ha, 3DAA) was 55%, the “% herbicide damage” value ([5]; Trt 18: mesotrione 600 gai/ha + Sequestrene 138 1000 g/ha, 7DAA) was 80% and the “% herbicide damage” value ([5]; Trt 18: mesotrione 600 gai/ha + Sequestrene 138 1000 g/ha, 14DAA) was 90% and 85%.
